Measured values: article PMC5729109 (Journal of the American Chemical Society, 2017)
Where “and” joins values, the source holds several entries; their conditions need not be identical. Equal values may be shown once. Marks after values point to notes of the source that are not given here. *1 amine or outer side, *2 acyl side, *3 side chain or, on linkers, in order; H or OH if unused. Where a SMILES comes first, the peptide text is derived from it. Bridges are numbered along the chain shown (N, C = ends). [ ]: non-standard residue; d: D form. Adda = CO[C@@H](Cc1ccccc1)[C@@H](C)/C=C(C)/C=C/[C@H](N[*:1])[C@H](C)C(=O)[*:2]; dAsp(3S-Me) = C[C@H](C(=O)[*:3])[C@@H](N[*:1])C(=O)[*:2]; d(γGlu) = O=C(O)[C@@H](CCC(=O)[*:2])N[*:1]; NMeDha = C=C(NC)C(=O)O

How the values were obtained:
PP1, PP2A, PP4 and PP5 = conditions: cited from earlier work
PP2A [1] = biological target: T1, PP2A (Homo sapiens, UniProt P67775); conditions: cited from earlier work
T1 sequence (P67775 whole entry): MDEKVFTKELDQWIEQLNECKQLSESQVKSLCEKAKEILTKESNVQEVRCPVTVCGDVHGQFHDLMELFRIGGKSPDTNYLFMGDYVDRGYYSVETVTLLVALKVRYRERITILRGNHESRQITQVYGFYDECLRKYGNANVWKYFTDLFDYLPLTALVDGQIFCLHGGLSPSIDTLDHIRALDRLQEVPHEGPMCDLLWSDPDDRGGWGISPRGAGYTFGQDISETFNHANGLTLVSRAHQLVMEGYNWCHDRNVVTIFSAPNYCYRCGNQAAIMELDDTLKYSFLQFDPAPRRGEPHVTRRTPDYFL

PP6 = PP6 (Homo sapiens, UniProt O00743); test: DiFMUP dephosphorylation assay, PP6; assay type: biochemical
Sequence of PP6 (O00743 whole entry): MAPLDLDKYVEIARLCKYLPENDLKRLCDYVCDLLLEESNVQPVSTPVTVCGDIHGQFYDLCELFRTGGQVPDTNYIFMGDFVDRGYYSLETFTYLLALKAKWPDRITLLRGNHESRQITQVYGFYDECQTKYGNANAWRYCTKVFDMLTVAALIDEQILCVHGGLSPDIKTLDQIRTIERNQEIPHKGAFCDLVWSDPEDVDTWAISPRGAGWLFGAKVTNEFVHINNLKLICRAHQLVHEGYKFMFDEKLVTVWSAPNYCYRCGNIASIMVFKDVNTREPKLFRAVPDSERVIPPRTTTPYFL

Lyp [2] = test: Tyrosine phosphatase inhibition, Lyp; assay type: biochemical; conditions: IC50 Lyp / IC50 PP1
PP2A [3] = biological target: T1, PP2A; test: [32P]-phosphohistone dephosphorylation assay, PP2A; assay type: biochemical
PP4 = PP4 (Homo sapiens, UniProt P60510); test: DiFMUP dephosphorylation assay, PP4; assay type: biochemical
Sequence of PP4 (P60510 whole entry): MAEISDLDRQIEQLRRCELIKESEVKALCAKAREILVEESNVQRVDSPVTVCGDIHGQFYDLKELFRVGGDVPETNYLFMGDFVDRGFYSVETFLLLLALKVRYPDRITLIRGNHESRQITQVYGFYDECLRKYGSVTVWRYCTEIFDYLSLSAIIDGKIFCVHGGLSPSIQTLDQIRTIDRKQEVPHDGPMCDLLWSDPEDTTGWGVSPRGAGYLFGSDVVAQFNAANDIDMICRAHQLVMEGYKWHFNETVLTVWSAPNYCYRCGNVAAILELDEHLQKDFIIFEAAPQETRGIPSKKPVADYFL

VHR [4] = conditions: tyrosine phosphatase; cited from earlier work
PP2B = PP2B (Homo sapiens, UniProt Q08209); test: DiFMUP dephosphorylation assay, PP2B; assay type: biochemical
Sequence of PP2B (P63098 2-170, other chains not shown): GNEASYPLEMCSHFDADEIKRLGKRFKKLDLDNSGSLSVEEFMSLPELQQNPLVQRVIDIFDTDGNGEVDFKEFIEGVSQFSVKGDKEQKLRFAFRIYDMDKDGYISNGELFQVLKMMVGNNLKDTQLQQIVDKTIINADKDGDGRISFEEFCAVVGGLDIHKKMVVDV

PTP1B [5] = conditions: tyrosine phosphatase; cited from earlier work
PTPα [6] = test: Tyrosine phosphatase inhibition, PTPα; assay type: biochemical; conditions: IC50 PTPα / IC50 PP1
PTP1B [7] = test: Tyrosine phosphatase inhibition, PTP1B; assay type: biochemical; conditions: IC50 PTP1B / IC50 PP1
CDC14A [8] = test: Tyrosine phosphatase inhibition, CDC14A; assay type: biochemical; conditions: IC50 CDC14A / IC50 PP1
HePTP [9] = test: Tyrosine phosphatase inhibition, HePTP; assay type: biochemical; conditions: IC50 HePTP / IC50 PP1
Lyp [10] = conditions: tyrosine phosphatase; cited from earlier work
PP1 [11] = biological target: T2, PP1 (Homo sapiens, UniProt P62136); test: [32P]-phosphohistone dephosphorylation assay, PP1; assay type: biochemical
T2 sequence (P62136 whole entry): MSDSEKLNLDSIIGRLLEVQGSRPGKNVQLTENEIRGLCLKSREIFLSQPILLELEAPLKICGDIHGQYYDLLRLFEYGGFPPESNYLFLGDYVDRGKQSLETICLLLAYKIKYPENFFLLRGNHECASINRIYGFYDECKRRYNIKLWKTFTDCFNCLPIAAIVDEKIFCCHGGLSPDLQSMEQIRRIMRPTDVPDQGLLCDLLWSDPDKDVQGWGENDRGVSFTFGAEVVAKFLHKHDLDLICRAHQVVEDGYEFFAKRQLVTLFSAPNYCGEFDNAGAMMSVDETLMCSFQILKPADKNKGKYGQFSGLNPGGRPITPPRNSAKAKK

CDC14A [12] = conditions: tyrosine phosphatase; cited from earlier work
SHP1 [13] = test: Tyrosine phosphatase inhibition, SHP1; assay type: biochemical; conditions: IC50 SHP1 / IC50 PP1
[14] = biological target: PP1 Cys127Ser mutant (C127SPP1) (Homo sapiens, UniProt P62136, C127S); assay type: biochemical
Sequence of PP1 Cys127Ser mutant (C127SPP1) (P62136 whole entry C127S): as the sequence (P62136 whole entry) above, with C127S counted along it

VHR [15] = test: Tyrosine phosphatase inhibition, VHR; assay type: biochemical; conditions: IC50 VHR / IC50 PP1
SHP1 [16] = conditions: tyrosine phosphatase; cited from earlier work
PP1 [17] = biological target: T2, PP1; test: Lineweaver-Burk kinetic analysis, PP1; assay type: biochemical; conditions: WT PP1; indicative of irreversible enzyme inhibition; Figure S6
PP1 (Cys127) = PP1 (Cys127) (Homo sapiens, UniProt P62136); test: ESI mass spectrometry of covalent PP1:TTN adduct, time-course; assay type: binding; conditions: ESI-MS time-course analysis
Sequence of PP1 (Cys127) (P62136 7-300): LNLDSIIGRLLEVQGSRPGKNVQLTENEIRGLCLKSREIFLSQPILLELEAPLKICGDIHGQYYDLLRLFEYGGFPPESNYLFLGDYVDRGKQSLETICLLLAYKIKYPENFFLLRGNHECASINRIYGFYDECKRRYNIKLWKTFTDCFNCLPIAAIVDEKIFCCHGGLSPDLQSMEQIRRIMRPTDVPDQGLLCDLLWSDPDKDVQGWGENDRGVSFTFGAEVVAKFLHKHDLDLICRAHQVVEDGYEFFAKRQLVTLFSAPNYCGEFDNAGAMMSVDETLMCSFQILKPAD

HePTP [18] = conditions: tyrosine phosphatase; cited from earlier work
SHP2 [19] = test: Tyrosine phosphatase inhibition, SHP2; assay type: biochemical; conditions: IC50 SHP2 / IC50 PP1
SHP2 [20] = conditions: tyrosine phosphatase; cited from earlier work
PP5 = PP5 (Homo sapiens, UniProt P53041); test: [32P]-phosphohistone dephosphorylation assay, PP5; assay type: biochemical
Sequence of PP5 (P53041 whole entry): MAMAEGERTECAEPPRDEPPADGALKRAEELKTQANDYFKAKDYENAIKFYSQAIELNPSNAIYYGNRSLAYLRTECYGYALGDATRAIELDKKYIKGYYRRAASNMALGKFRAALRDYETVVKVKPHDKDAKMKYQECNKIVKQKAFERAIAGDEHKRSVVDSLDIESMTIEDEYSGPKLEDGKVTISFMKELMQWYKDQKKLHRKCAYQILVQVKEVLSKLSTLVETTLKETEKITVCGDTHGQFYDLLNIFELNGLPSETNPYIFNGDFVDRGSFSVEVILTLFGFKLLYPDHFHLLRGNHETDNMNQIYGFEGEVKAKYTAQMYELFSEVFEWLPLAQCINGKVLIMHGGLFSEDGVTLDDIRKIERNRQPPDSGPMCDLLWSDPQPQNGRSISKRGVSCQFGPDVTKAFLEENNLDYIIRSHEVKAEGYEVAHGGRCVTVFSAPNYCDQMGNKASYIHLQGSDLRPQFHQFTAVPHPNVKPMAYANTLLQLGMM

CD45 [21] = test: Tyrosine phosphatase inhibition, CD45; assay type: biochemical; conditions: IC50 CD45 / IC50 PP1
CD45 [22] = conditions: tyrosine phosphatase; cited from earlier work
PTPα [23] = conditions: tyrosine phosphatase; cited from earlier work
PPP family members = test: In vitro dephosphorylation assays across PPP family members; assay type: biochemical

## CO[C@H]([C@H](O)CC(=O)[C@@H](C)[C@@H](O)CC[C@@H](C)[C@@H]1O[C@]2(CC[C@@H](C)[C@H](CC[C@H](C)C(C)=O)O2)CC[C@@H]1C)[C@H](OC(=O)C[C@@H](O)C1=C(C)C(=O)OC1=O)C(C)C [TTM, tautomycin]
PP1, PP2A, PP4 and PP5
  Inhibition of PP1, PP2A, PP4 and PP5 compared: to a similar extent

## C[C@@](O)(/C=C/[C@H]1CC=CC(=O)O1)[C@@H](C[C@@H](O)\C=C/C=C\C=C\CO)OP(=O)(O)O [fostriecin]
PP2A [1]
  Inhibition of PP2A compared with PP4: nearly the same extent

## C=C/C(=C/C(=O)C[C@H](C)C[C@@H](C)CC[C@H](O)[C@H](C)C(=O)C[C@@H](O)[C@H](C)[C@@H](C)OC(=O)C[C@@H](O)C1=C(C)C(=O)OC1=O)CC [TTN, Tautomycetin]
PP6
  IC50: 0.101 ± 0.007 µM
PP6; IC50 PP6 / IC50 PP1
  Fold change (relative to PP1): 2657 fold
Lyp [2]
  Fold change (relative to PP1): >10^5 fold
PP2A [3]
  IC50: 0.0053 ± 0.00026 µM
PP2A [3]; IC50 PP2A / IC50 PP1, [32P]-phosphohistone
  Fold change (relative to PP1): 139 ^b fold
PP4
  IC50: 0.0444 ± 0.0042 µM
PP4; IC50 PP4 / IC50 PP1
  Fold change (relative to PP1): 1168 fold
VHR [4]
  IC50: > 50 µM
PP2B
  IC50: 17.5 ± 3.2 µM
PP2B; IC50 PP2B / IC50 PP1
  Fold change (relative to PP1): >10^5 fold
PTP1B [5]
  IC50: 41.2 ± 4.4 µM
PTPα [6]
  Fold change (relative to PP1): >10^5 fold
PTP1B [7]
  Fold change (relative to PP1): >10^5 fold
CDC14A [8]
  Fold change (relative to PP1): >10^5 fold
HePTP [9]
  Fold change (relative to PP1): >10^5 fold
Lyp [10]
  IC50: 20 ± 2 µM
PP1 [11]
  IC50: 0.038 ± 0.009 nM
CDC14A [12]
  IC50: > 50 µM
SHP1 [13]
  Fold change (relative to PP1): >10^5 fold
[14]
  Change of IC50 for C127SPP1 compared to WT PP1: ~10 fold
[14]; C127SPP1, Figure S6
  Mode of inhibition (Lineweaver-Burk kinetic analysis): competitive inhibition
VHR [15]
  Fold change (relative to PP1): >10^5 fold
SHP1 [16]
  IC50: 14.6 ± 0.1 µM
PP1 [17]
  Mode of inhibition (Lineweaver-Burk kinetic analysis): noncompetitive inhibition
PP1 (Cys127)
  Time of covalent adduct formation with PP1: less than 10 min
HePTP [18]
  IC50: > 50 µM
SHP2 [19]
  Fold change (relative to PP1): >10^4 fold
SHP2 [20]
  IC50: 2.9 ± 0.2 µM
PP5
  IC50: 0.0119 ± 5e-05 µM
PP5; IC50 PP5 / IC50 PP1, [32P]-phosphohistone
  Fold change (relative to PP1): 313 ^b fold
CD45 [21]
  Fold change (relative to PP1): >10^5 fold
CD45 [22]
  IC50: > 50 µM
PTPα [23]
  IC50: > 50 µM
PPP family members
  Selectivity (potency) for PP1 versus any other PPP tested: > 100 fold and 100 fold
PPP family members; PPPs other than PP2A and PP5
  Fold higher IC50 than for PP1, the other PPPs tested: > 10^3 fold

## C=C1C(=O)N[C@H](C)C(=O)N[C@@H](CC(C)C)C(=O)N[C@@H](C(=O)O)[C@H](C)C(=O)N[C@@H](CCCNC(=N)N)C(=O)N[C@@H](/C=C/C(C)=C/[C@H](C)[C@H](Cc2ccccc2)OC)[C@H](C)C(=O)N[C@@H](C(=O)O)CCC(=O)N1C [Microcystin-LR] (R[Adda][d(γGlu)][NMeDha][dA]L[dAsp(3S-Me)]-OH; lactam N-7)
[14]
  Change of IC50 for C127SPP1 compared to WT PP1: no difference
